Source: the supplement of paper PMC10307832

Key:
Assay in all cases: relative viability (nuclei count vs DMSO), 5 days (fraction); higher = more cells survive
[1] = compound: CCn1c(-c2nonc2N)nc2c(C#CC(C)(C)O)ncc(OC[C@H]3CCCNC3)c21 + CC1(C)CCC(c2ccc(Cl)cc2)=C(CN2CCN(c3ccc(C(=O)NS(=O)(=O)c4ccc(N[C@H](CCN5CCOCC5)CSc5ccccc5)c(S(=O)(=O)C(F)(F)F)c4)cc3)CC2)C1 [Navitoclax] (partner 0.5 µM)
Outline: (§1)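 Nuclei were stained with Hoechst during a one-step fixation (final 0.05% Triton X-100, 1% formaldehyde, 1 ug/ml Hoechst) carried out 5 days after dosing, then counted on 4× images. The cells, lung cancer lines in 1536-well plates, had been dosed by pin tool the day after seeding with one drug alone or a fixed anchor-drug dose plus five library-drug doses (not always all listed) in √10 steps. Relative viability is the nuclei count in treated wells divided by that in vehicle wells, and each value is the median of duplicate plates.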

BAM7 + Vorinostat = compound: CCOC1=CC=CC=C1N=NC2=C(NN(C2=O)C3=NC(=CS3)C4=CC=CC=C4)C [BAM7] + O=C(CCCCCCC(=O)Nc1ccccc1)NO [Vorinostat] (partner 1 µM)
Outline: as §1

BAM7 + Decitabine = compound: CCOC1=CC=CC=C1N=NC2=C(NN(C2=O)C3=NC(=CS3)C4=CC=CC=C4)C [BAM7] + Nc1ncn([C@H]2C[C@H](O)[C@@H](CO)O2)c(=O)n1 [Decitabine] (partner 2 µM)
Outline: as §1

BAM7 + Foretinib = compound: CCOC1=CC=CC=C1N=NC2=C(NN(C2=O)C3=NC(=CS3)C4=CC=CC=C4)C [BAM7] + COc1cc2c(Oc3ccc(NC(=O)C4(C(=O)Nc5ccc(F)cc5)CC4)cc3F)ccnc2cc1OCCCN1CCOCC1 [Foretinib] (partner 0.25 µM)
Outline: as §1

Cell Line | relative viability ([1]; first compound 0.01 µM) | relative viability ([1]; first compound 0.03162 µM) | relative viability ([1]; first compound 0.1 µM) | relative viability ([1]; first compound 0.3162 µM) | relative viability ([1]; first compound 1 µM) | relative viability (BAM7 + Vorinostat; first compound 0.5 µM) | relative viability (BAM7 + Vorinostat; first compound 5 µM) | relative viability (BAM7 + Vorinostat; first compound 15.81 µM) | relative viability (BAM7 + Vorinostat; first compound 50 µM) | relative viability (BAM7 + Decitabine; first compound 0.5 µM) | relative viability (BAM7 + Decitabine; first compound 5 µM) | relative viability (BAM7 + Decitabine; first compound 15.81 µM) | relative viability (BAM7 + Decitabine; first compound 50 µM) | relative viability (BAM7 + Foretinib; first compound 0.5 µM) | relative viability (BAM7 + Foretinib; first compound 5 µM) | relative viability (BAM7 + Foretinib; first compound 15.81 µM) | relative viability (BAM7 + Foretinib; first compound 50 µM)
NCI-H322M | 1.25 | 1.27 | 1.17 | 1.13 | 1.23 | 0.884 | 0.868 | 1.05 | 0.913 | 0.761 | 0.722 | 0.742 | 0.692 | 0.939 | 0.95 | 0.862 | 0.932
NCI-H441 | 0.48 | 0.626 | 0.591 | 0.65 | 0.556 | 1.1 | 0.607 | 0.762 | 0.773 | 0.291 | 0.251 | 0.235 | 0.209 | 1.09 | 1.13 | 0.767 | 1.14
NCI-H460 | 1.1 | 1.17 | 1.13 | 1.05 | 1.19 | 0.657 | 0.634 | 0.611 | 0.647 | 0.475 | 0.455 | 0.473 | 0.449 | 0.926 | 0.982 | 0.878 | 0.969
NCI-H520 | 1.05 | 1.11 | 1.05 | 0.934 | 0.797 | 0.801 | 0.866 | 0.702 | 0.718 | 0.54 | 0.478 | 0.484 | 0.525 | 0.736 | 0.825 | 0.767 | 0.804
NCI-H596 | 0.914 | 0.96 | 0.934 | 1 | 0.938 | 0.646 | 0.716 | 0.558 | 0.7 | 0.879 | 0.984 | 0.908 | 1.09 | 0.874 | 0.883 | 0.762 | 0.951
NCI-H647 | 1.16 | 0.96 | 1.14 | 1.08 | 1.14 | 0.4 | 0.532 | 0.556 | 0.712 | 0.404 | 0.372 | 0.436 | 0.438 | 1.4 | 1.2 | 1.16 | 1.21
NCI-H727 | 0.387 | 0.376 | 0.563 | 0.373 | 0.418 | 1.42 | 1.09 | 0.942 | 0.839 | 0.894 | 0.954 | 0.89 | 0.808 | 0.851 | 1.19 | 0.864 | 0.801
NCI-H838 | 1.15 | 1.22 | 1.2 | 1.03 | 1.19 | 0.741 | 0.776 | 0.723 | 0.673 | 0.514 | 0.447 | 0.452 | 0.478 | 1.08 | 1.22 | 0.985 | 0.989
NCI-H1355 | 1 | 0.819 | 1.02 | 0.882 | 0.969 | 0.617 | 0.553 | 0.544 | 0.566 | 0.357 | 0.357 | 0.319 | 0.37 | 0.936 | 0.907 | 0.795 | 0.791
NCI-H1395 | 1.04 | 1.14 | 1.11 | 1.08 | 0.882 | 0.662 | 0.678 | 0.645 | 0.939 | 0.729 | 0.875 | 0.707 | 0.722 | 1.01 | 1.09 | 1.01 | 1.05
NCI-H1437 | 1.05 | 1.08 | 1.11 | 1.09 | 1.13 | 0.734 | 0.669 | 0.616 | 0.677 | 0.527 | 0.572 | 0.543 | 0.482 | 1.31 | 1.2 | 1.21 | 1.2
NCI-H1650 | 1.2 | 1.04 | 1.03 | 0.894 | 1.13 | 0.605 | 0.449 | 0.428 | 0.571 | 0.39 | 0.409 | 0.431 | 0.38 | 1.34 | 1.2 | 1.01 | 1.04
NCI-H1651 | 1.06 | 1.02 | 1.01 | 1.14 | 1 | 0.543 | 0.59 | 0.661 | 0.612 | 0.598 | 0.66 | 0.617 | 0.599 | 0.893 | 0.837 | 0.686 | 0.829
NCI-H1666 | 0.881 | 0.835 | 0.699 | 0.904 | 0.871 | 1.08 | 0.944 | 1.01 | 1.05 | 0.691 | 0.775 | 0.718 | 0.677 | 0.945 | 1.1 | 0.996 | 1.06
NCI-H1734 | 0.781 | 0.921 | 0.814 | 0.821 | 0.816 | 0.841 | 0.903 | 0.812 | 0.832 | 0.515 | 0.519 | 0.551 | 0.489 | 0.849 | 1 | 0.779 | 0.825
NCI-H1755 | 0.985 | 0.984 | 0.981 | 0.958 | 1.01 | 0.751 | 0.867 | 0.79 | 0.844 | 0.667 | 0.774 | 0.711 | 0.793 | 0.951 | 0.941 | 0.961 | 0.95
NCI-H1793 | 0.381 | 0.462 | 0.465 | 0.375 | 0.41 | 0.751 | 0.715 | 0.726 | 1.08 | 0.469 | 0.552 | 0.467 | 0.486 | 0.679 | 0.619 | 0.727 | 0.928
NCI-H1915 | 0.821 | 0.778 | 0.79 | 0.488 | 0.76 | 0.487 | 0.564 | 0.537 | 0.515 | 0.266 | 0.259 | 0.249 | 0.281 | 1.21 | 1.15 | 1.02 | 1.02
